Data as given in patent US12492163B2, “9H-fluorene derivatives or their pharmaceutically acceptable salts” (priority 2020, dated 2025).

Tests used:
[1] = biological target: Recombinant human Aβ1-42 peptide (Homo sapiens (Human), UniProt P05067); test: Thioflavin T test, antiaggregation activity against beta-amyloid; format: biochemical; details: 10 μM test compound, 1.5 μM Aβ1-42; read-out: inh. Aβ aggr. % inh
Description: The thioflavin T test [Levine III] was used for the determinations. Recombinant human Aβ1-42 peptide (HFIP pretreated, Merck Millipore, Darmstadt, Germany) was dissolved in DMSO to form a 75 μM stock solution. The solution was further diluted in HEPES buffer (150 mM HEPES, pH 7.4, 150 mM NaCl) to a concentration of 7.5 μM. Then, the Aβ1-42 solution was added to the test compounds (black 96-well plates were used) and diluted with thioflavin T solution (10 μM final concentration). The final mixture contained 1.5 μM Aβ1-42, 10 μM test compound, and 3% of DMSO. Fluorescence was measured every 300 s (excitation wavelength was 440 nm, emission wavelength was 490 nm) with continuous mixing between measurements. A multifunction microplate reader (Synergy H4; BioTek Instruments, Inc., Winooski, VT, USA) was used to measure the fluorescence. Fluorescence started increasing after approximately 4 hours, plateaued after 20 hours and remained virtually unchanged for the next 28 hours of incubation. The plateau-phase fluorescence intensities (in the presence and absence of test compounds) were averaged and the mean fluorescence values for the respective wells at t=0 h were subtracted from them. […] IC50 values were calculated using non-linear regression (GraphPad Prism 5 [GraphPad Software, San Diego, CA, USA 5.00]) for the percentage of aggregation inhibition against the inhibitor concentration used.

mGAT1 = mGAT1 (Mus musculus (Mouse), UniProt P31648); test: [3H]GABA uptake inhibition, mGAT1 in HEK293 cells; format: cell-based
Description: (§1) Exemplary compounds according to the invention were screened at the Ludwig-Maximilian University of Munich to determine the inhibitory ability towards four mouse GAT transporters (mGAT1-mGAT4). […] The biological material was stably transfected human embryonic kidney HEK293 cells, expressing genes to the appropriate transporters. The generated radioactivity was measured with a liquid scintillation counter. […] These determinations were made according to the procedure described in detail in A. Kragler, G. Höfner, K. T. Wanner, Novel parent structures for inhibitors of the murine GABA transporters mGAT3 and mGAT4, Eur. J. Pharmacol. 519 (2005) 43-47.

mGAT2 = mGAT2 (Mus musculus (Mouse), UniProt P31651); test: [3H]GABA uptake inhibition, mGAT2 in HEK293 cells; format: cell-based; details: for IC50: GABA reuptake, read-out: pIC50 (+/−SEM) mGAT2 (converted); for percentage of [3H]GABA reuptake retained, mGAT2: inhibitor at 100 μM, remaining reuptake
Description: as §1

[2] = biological target: horse plasma butyrylcholinesterase (eqBuChE) (Equus caballus (Horse), UniProt P81908); test: Ellman's test, inhibition of horse plasma butyrylcholinesterase; format: biochemical
Description: (§2) The spectrophotometric Ellman's test [Ellman et al.] modified for assays in 96-well plates was used to test the activity. Reagents: 5,5′-dithiobis-(2-nitrobenzoic acid) (DTNB), eqBuChE and butyrylthiocholine iodide (BTC) were purchased from Sigma-Aldrich (Steinheim, Germany). hBuChE was from Vivonics (Bedford, MA, USA). The enzymes were prepared by dissolving in demineralized water to a concentration of 0.384 U/ml. Stock solutions of test compounds were prepared by dissolving in DMSO to a concentration of 0.0034 M. They were then diluted with water to obtain the appropriate concentrations in the wells. In the first step of the test, 25 μl of test compound (or DMSO/water mixture at the appropriate ratio for blank samples) was incubated in 0.1 M phosphate buffer (200 μl, pH=8.0) with DTNB (20 μl; 0.0025M) and with the appropriate enzyme (20 μl; eqBuChE or hBuChE) at 25° C. (animal enzyme) or 36° C. (human enzyme). After a 5 minutes incubation period, 20 μl of BTC solution (0.00375 M) was added. After another 5 minutes, the changes in absorbance of the solutions were measured at 412 nm using a multifunctional microplate reader (EnSpire Multimode; PerkinElmer; Waltham, MA, USA). All compounds were tested at a screening concentration of 10 μM (eqBuChE) or 1 μM (hBuChE). The percentage of enzyme inhibition was calculated from the equation 100-(S/B)×100, where S and B were the enzymatic activity in the test sample well and in the well without sample, respectively. […] All reactions were performed in triplicate. IC50 values were calculated using non-linear regression (GraphPad Prism 5 [GraphPad Software, San Diego, CA, USA 5.00]) for the percentage of enzyme inhibition against the inhibitor concentration used. Tacrine and donepezil were used as reference compounds.

mGAT4 = mGAT4 (Mus musculus (Mouse), UniProt P31650); test: [3H]GABA uptake inhibition, mGAT4 in HEK293 cells; format: cell-based; details: for IC50: GABA reuptake, read-out: pIC50 (+/−SEM) mGAT4 (converted); for percentage of [3H]GABA reuptake retained, mGAT4: inhibitor at 100 μM, remaining reuptake
Description: as §1

[3] = biological target: human plasma butyrylcholinesterase (hBuChE) (Homo sapiens (Human), UniProt P06276); test: Ellman's test, inhibition of human plasma butyrylcholinesterase; format: biochemical; details: for inhibition at 1 µM: 1 μM inhibitor concentration, read-out: hBuChE % inh
Description: as §2

mGAT3 = mGAT3 (Mus musculus (Mouse), UniProt P31649); test: [3H]GABA uptake inhibition, mGAT3 in HEK293 cells; format: cell-based; details: for percentage of [3H]GABA reuptake retained, mGAT3: inhibitor at 100 μM, remaining reuptake
Description: as §1

[4] = biological target: human recombinant beta-secretase (hBACE1) (Homo sapiens (Human), UniProt P56817); test: FRET assay, inhibition of human recombinant beta-secretase; format: biochemical; details: for inhibition at 50 µM: 50 μM inhibitor concentration, read-out: hBACE-1 % inh; for IC50: read-out: hBACE-1 IC50
Description: The FRET assay [Vassar, et al.] was used to test activity using 384-well black plates and a microplate reader (EnSpire Multimode; PerkinElmer; Waltham, MA, USA). The test was purchased from Life Technologies Polska Sp. z o.o. (Warsaw, Poland). […] Stock solutions of test compounds were prepared in DMSO and then further diluted with assay buffer (50 mM sodium acetate; pH 4.5) to the appropriate concentrations in the wells. In the first step of the test, 10 μl of the substrate (Rh-[…] quencher, based on the so-called Swedish APP mutation) was mixed with 10 μl of the test compound (or assay buffer; for blank sample). The enzyme reaction was initiated by adding 10 μl of enzyme (hBACE1, 1 U/ml). The reaction mixture was incubated at 25° C. for 60 minutes, then 10 μL of Stop solution (2.5 M sodium acetate) was added. After stopping the reaction, fluorescence was measured at 576 nm. The percentage of enzyme inhibition was calculated from the formula [1−(S60−S0)/(C60−C0)]×100, where S0 and S60 are the fluorescence of the test sample (containing the enzyme, substrate and test compound) at the start of the reaction and after 60 minutes, respectively, whereas C0 and C60 were analogous fluorescence intensities in the blank samples (containing enzyme, substrate and buffer). All test compounds were tested at a concentration of 50 μM in triplicate. […] A BACE1 IV inhibitor (Calbiochem, Merck; Nottingham, UK) [Stachel et al.] was used as a reference compound. […] IC50 values for all test compounds were calculated using non-linear regression (GraphPad Prism 5 [GraphPad Software, San Diego, CA, USA 5.00]) for the percentage of enzyme inhibition against the inhibitor concentration used.

Sequence of mGAT2 (P31651 whole entry): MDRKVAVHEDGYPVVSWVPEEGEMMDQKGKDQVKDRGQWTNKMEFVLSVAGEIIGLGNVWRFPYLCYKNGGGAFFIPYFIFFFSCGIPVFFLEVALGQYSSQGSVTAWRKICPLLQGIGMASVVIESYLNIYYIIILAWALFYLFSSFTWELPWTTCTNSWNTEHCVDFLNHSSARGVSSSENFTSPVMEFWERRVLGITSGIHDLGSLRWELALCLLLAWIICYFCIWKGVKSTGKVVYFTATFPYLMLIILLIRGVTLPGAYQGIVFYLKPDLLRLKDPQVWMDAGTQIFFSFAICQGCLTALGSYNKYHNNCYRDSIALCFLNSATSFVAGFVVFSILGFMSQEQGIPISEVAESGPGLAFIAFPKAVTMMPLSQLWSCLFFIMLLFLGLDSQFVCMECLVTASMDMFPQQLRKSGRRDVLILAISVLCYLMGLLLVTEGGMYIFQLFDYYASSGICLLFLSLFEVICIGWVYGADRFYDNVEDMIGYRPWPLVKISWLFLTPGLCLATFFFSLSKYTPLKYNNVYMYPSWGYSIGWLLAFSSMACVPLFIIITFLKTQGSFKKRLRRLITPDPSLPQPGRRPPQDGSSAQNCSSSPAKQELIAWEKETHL
Sequence of mGAT4 (P31650 whole entry): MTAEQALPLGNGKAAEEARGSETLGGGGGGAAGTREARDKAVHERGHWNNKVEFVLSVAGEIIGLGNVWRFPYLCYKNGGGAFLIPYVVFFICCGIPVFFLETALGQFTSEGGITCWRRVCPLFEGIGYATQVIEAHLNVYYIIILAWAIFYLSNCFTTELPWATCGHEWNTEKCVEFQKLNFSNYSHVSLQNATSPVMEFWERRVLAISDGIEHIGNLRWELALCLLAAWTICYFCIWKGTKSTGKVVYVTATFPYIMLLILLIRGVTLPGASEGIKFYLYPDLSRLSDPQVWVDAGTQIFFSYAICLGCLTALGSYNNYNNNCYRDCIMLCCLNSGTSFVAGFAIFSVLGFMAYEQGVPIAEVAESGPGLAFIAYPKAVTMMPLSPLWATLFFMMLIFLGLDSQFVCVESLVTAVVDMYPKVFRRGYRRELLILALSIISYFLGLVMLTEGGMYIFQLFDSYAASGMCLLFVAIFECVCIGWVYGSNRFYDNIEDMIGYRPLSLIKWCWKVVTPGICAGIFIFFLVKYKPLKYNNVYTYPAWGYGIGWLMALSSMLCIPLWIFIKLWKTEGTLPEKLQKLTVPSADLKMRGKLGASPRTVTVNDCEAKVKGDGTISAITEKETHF
Sequence of Recombinant human Aβ1-42 peptide (P05067 672-713): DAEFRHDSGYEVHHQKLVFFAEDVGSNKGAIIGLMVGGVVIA
Sequence of human recombinant beta-secretase (hBACE1) (P56817 46-501): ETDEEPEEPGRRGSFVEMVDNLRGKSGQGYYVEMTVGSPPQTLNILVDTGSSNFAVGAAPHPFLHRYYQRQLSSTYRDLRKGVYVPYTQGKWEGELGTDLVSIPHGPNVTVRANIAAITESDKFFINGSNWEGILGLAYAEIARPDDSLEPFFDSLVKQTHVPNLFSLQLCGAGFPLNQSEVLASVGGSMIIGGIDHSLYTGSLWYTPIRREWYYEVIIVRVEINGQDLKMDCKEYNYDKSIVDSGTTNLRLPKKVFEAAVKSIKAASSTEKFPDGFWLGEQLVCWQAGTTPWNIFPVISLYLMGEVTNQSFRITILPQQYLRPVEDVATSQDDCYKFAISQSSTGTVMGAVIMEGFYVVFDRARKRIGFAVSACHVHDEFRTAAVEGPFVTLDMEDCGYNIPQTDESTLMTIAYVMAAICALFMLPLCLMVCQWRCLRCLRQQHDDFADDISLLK
Sequence of human plasma butyrylcholinesterase (hBuChE) (P06276 29-602): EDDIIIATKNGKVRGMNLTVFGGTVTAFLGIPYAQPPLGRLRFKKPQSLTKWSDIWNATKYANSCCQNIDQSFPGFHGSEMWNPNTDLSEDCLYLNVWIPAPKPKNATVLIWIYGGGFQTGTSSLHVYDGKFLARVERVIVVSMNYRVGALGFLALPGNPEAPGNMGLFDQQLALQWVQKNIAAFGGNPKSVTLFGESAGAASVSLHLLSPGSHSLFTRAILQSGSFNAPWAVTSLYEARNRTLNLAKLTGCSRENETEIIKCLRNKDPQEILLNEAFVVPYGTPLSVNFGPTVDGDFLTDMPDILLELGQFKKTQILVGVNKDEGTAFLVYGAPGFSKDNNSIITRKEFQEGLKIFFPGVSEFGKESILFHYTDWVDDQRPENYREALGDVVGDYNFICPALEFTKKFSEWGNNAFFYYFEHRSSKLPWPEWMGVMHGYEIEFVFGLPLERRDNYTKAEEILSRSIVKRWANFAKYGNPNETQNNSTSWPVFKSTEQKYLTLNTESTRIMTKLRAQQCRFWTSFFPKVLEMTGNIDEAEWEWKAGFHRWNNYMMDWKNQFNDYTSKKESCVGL
Sequence of mGAT3 (P31649 whole entry): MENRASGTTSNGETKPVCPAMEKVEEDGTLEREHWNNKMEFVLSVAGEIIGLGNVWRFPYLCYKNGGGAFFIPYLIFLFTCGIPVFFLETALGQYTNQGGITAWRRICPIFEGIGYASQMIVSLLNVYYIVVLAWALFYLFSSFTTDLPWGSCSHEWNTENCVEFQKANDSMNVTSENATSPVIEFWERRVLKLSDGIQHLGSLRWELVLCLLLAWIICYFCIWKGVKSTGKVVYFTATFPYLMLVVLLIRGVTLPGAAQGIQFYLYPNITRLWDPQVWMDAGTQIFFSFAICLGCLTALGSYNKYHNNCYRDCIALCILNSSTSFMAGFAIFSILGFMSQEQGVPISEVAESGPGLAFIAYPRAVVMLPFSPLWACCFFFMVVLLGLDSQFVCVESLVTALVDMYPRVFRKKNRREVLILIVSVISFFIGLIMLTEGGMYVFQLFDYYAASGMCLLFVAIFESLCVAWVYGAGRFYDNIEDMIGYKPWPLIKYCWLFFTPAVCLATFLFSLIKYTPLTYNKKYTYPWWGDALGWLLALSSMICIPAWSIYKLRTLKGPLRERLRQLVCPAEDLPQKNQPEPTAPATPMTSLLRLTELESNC
Sequence of horse plasma butyrylcholinesterase (eqBuChE) (P81908 whole entry): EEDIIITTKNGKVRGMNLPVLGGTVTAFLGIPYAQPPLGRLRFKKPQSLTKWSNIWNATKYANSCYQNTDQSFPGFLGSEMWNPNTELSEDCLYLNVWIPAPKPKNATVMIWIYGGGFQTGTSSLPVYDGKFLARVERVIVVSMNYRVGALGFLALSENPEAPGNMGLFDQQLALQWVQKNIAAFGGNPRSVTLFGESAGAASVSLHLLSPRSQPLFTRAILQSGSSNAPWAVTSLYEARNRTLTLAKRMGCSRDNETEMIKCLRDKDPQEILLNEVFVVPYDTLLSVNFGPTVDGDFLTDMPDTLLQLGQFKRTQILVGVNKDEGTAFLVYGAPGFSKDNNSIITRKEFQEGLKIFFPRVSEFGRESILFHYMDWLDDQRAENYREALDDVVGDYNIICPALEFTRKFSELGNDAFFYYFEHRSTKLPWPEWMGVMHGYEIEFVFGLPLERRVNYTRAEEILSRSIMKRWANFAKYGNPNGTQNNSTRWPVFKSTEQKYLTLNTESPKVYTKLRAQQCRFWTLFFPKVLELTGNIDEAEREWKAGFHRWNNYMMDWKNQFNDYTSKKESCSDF

| Structure (SMILES) | inhibition at 10 µM [1] [%] | IC50 (mGAT1; GABA reuptake, read-out: pIC50 (+/−SEM) mGAT1 (converted)) [µM] | IC50 (mGAT2) [µM] | IC50 [2] [µM] | IC50 (mGAT4) [µM] | inhibition at 1 µM [3] [%] | IC50 (mGAT3; GABA reuptake, read-out: pIC50 (+/−SEM) mGAT3 (converted)) [µM] | inhibition at 50 µM [4] [%] | percentage of [3H]GABA reuptake retained, mGAT1 (mGAT1; inhibitor at 100 μM, remaining reuptake) [%] | percentage of [3H]GABA reuptake retained, mGAT2 (mGAT2) [%] | inhibition at 10 µM ([2]; 10 μM inhibitor concentration, read-out: eqBuChE percent inhibition of enzyme) [%] | percentage of [3H]GABA reuptake retained, mGAT4 (mGAT4) [%] | percentage of [3H]GABA reuptake retained, mGAT3 (mGAT3) [%] | pIC50 (+/−SEM) mGAT1 (mGAT1; GABA reuptake) | IC50 [3] [µM] | IC50 [4] [µM] | pIC50 (+/−SEM) mGAT3 (mGAT3; GABA reuptake) |
| --- | --- | --- | --- | --- | --- | --- | --- | --- | --- | --- | --- | --- | --- | --- | --- | --- | --- |
| COc1ccccc1CNC[C@H](O)[C@H](Cc1ccccc1)NC(=O)CC1c2ccccc2-c2ccccc21 [Compound 20, 2-(9H-fluorene-9-yl)-N-((2S,3S)-3-hydroxy-4-((2-methoxybenzyl)amino)-1-phenylbutan-2-yl)acetamide] | < 10 | 9.55 | 9.12 | 2.2 | 4.07 | 74.5 | 8.32 | 71.1 | – | – | – | – | – | – | – | – | – |
| C[C@H](NC[C@@H](O)[C@H](Cc1ccccc1)NC(=O)C1c2ccccc2-c2ccccc21)c1ccccc1 [Compound 22, N-((2S,3R)-3-hydroxy-1-phenyl-4-(((S)-1-phenylethyl)amino)butan-2-yl)-9H-fluorene-9-carboxamide] | < 10 | – | – | – | – | < 10 | – | 72.6 | 83 | 97 | 42 | 69 | 90 | – | – | – | – |
| C[C@H](NC[C@@H](O)[C@H](Cc1ccccc1)NC(=O)CC1c2ccccc2-c2ccccc21)c1ccccc1 [Compound 23, 2-(9H-fluoren-9-yl)-N-((2S,3R)-3-hydroxy-1-phenyl-4-(((S)-1-phenylethyl)amino)butan-2-yl)acetamide] | 59.4 | – | 14.5 | 8.86 | – | – | – | – | – | – | – | 61 | 59 | 4.73 | 0.558 | 7.36 | – |
| CC(C)(C)CNC[C@@H](O)[C@H](Cc1ccccc1)NC(=O)CC1c2ccccc2-c2ccccc21 [Compound 27, 2-(9H-fluoren-9-yl)-N-((2S,3R)-3-hydroxy-4-(neopentylamino)-1-phenylbutan-2-yl)acetamide] | 53.5 | – | – | 0.383 | 13.8 | – | – | 52.4 | – | 52 | – | – | – | 4.32 | 0.207 | – | 4.52 |
| O=C(CC1c2ccccc2-c2ccccc21)N[C@@H](Cc1ccccc1)[C@H](O)CNCC1CC1 [Compound 28, N-((2S,3R)-4-((cyclopropylmethyl)amino)-3-hydroxy-1-phenylbutan-2-yl)-2-(9H-fluoren-9-yl)acetamide] | 73.4 | – | – | 1.19 | 12.6 | – | – | – | – | 10 | – | – | – | 4.87 | 0.246 | 12.3 | 5.09 |
